How the values were obtained:
KV4.2 = biological target: T1, KV4.2 (Rattus norvegicus, UniProt Q63881); assay: Potassium channels patch-clamp (QPatch), KV4.2; type: cell-based
T1 construct: expressed in transfected cells; host or cells: LTK
T1 sequence (Q63881 1-630): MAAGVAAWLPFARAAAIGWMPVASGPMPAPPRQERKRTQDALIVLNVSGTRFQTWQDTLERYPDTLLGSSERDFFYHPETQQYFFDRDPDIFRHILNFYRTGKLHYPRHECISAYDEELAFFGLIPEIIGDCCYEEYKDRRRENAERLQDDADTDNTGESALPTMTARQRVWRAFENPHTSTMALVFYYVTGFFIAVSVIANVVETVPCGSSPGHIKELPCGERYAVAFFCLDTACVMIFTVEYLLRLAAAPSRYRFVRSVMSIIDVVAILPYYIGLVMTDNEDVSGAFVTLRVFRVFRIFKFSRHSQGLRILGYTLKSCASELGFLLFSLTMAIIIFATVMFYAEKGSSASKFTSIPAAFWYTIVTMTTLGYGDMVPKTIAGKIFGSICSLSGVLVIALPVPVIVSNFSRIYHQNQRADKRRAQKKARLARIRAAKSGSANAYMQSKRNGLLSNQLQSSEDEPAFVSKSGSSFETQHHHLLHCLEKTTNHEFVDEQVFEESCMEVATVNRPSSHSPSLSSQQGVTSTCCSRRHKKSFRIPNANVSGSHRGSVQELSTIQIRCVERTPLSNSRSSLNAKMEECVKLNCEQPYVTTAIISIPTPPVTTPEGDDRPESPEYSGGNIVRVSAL
Experimental: The effects of Group 4 compounds on related potassium channels were evaluated by patch-clamp using a QPatch HTX automated electrophysiology platform (Sophion, Denmark). The giga-seal and whole-cell requirements for the automated electrophysiology were the following: minimum seal resistance=0.1 GO, holding potential=−80 mV, holding pressure=−20 mbar; and positioning pressure=−70 mbar.

KCa3.1 channel = KCa3.1 channel (Homo sapiens, UniProt O15554); assay: KCa3.1 patch-clamp (QPatch HTX automated and manual); type: cell-based
Experimental: The effect of the compounds on KCa3.1 channel was evaluated by patch-clamp using a QPatch HTX automated electrophysiology platform (Sophion, Denmark) and by manual patch-clamp (HEKA, Germany). For QPatch experiments, the giga-seal and whole-cell requirements for the automated electrophysiology were the following: minimum seal resistance=0.1 GQ; holding potential=−80 mV; holding pressure=−20 mbar; and positioning pressure=−70 mbar. For KCa3.1 experiment, the external solution was Na^+-Ringer's and contained (in mM): 160 NaCl; 10 HEPES; 4.5 KCl; 1 MgCl2; and 2 CaCl2 (pH=7.4, 310 mOsm). […] Following establishment of the whole-cell configuration, cells were held at −80 mV and KCa3.1 currents elicited by a voltage protocol that held at −80 mV for 20 ms, stepped to −120 mV for 20 ms, ramped from −120 to +40 mV over 200 ms, and then stepped back to −120 mV for 20 ms. This pulse protocol was applied every 10 s. Current slopes (in amperes per second) were measured using the Sophion QPatch software and exported to Microsoft Excel and GraphPad Prism 7 for analysis. […] Curve-fitting and IC50 determination were performed using GraphPad Prism software.

| SMILES | IC50 (KV4.2) | IC50 (KCa3.1 channel; KCa3.1, Table 5) | IC50 (KCa3.1 channel; KCa3.1 IC50 (nM), Table 3) | IC50 (KCa3.1 channel; IC50 (nM), block of KCa3.1, patch clamp (Table 2)) |
| --- | --- | --- | --- | --- |
| COC(=O)C1=CNC=C(C(=O)OC)C1c1ccc(F)c(C(F)(F)F)c1 [Compound 103, Dimethyl 4-(4-fluoro-3-(trifluoromethyl)phenyl)-1,4-dihydropyridine-3,5-dicarboxylate] | > 10000 nM | 6.1 ± 0.9 nM | 6.1 nM |  |
| COC(=O)C1=C(C)NC(C)=C(C(=O)OC)C1c1ccc(F)c(C(F)(F)F)c1 [Compound 101] | > 10000 nM | 16.2 ± 0.2 nM |  | 16 ± 0.2 nM |
